This note sets out measurements from patent US8945865B2, “Method for screening for compound capable of enhancing or inhibiting OATP1B1 transport activity, and method for determining expression level of OATP1B1” (Eisai R&D Management Co., Ltd., priority 2011, dated 2015).

Usually Ki stands for a measure of affinity in units of concentration, obtained from inhibition or displacement. By Km is commonly meant the substrate concentration at which the rate is half of its maximum.

Data set [1] addresses T1, OATP1B1 (Homo sapiens, UniProt Q9Y6L6, N130D).
T1 sequence (Q9Y6L6 1-691 N130D): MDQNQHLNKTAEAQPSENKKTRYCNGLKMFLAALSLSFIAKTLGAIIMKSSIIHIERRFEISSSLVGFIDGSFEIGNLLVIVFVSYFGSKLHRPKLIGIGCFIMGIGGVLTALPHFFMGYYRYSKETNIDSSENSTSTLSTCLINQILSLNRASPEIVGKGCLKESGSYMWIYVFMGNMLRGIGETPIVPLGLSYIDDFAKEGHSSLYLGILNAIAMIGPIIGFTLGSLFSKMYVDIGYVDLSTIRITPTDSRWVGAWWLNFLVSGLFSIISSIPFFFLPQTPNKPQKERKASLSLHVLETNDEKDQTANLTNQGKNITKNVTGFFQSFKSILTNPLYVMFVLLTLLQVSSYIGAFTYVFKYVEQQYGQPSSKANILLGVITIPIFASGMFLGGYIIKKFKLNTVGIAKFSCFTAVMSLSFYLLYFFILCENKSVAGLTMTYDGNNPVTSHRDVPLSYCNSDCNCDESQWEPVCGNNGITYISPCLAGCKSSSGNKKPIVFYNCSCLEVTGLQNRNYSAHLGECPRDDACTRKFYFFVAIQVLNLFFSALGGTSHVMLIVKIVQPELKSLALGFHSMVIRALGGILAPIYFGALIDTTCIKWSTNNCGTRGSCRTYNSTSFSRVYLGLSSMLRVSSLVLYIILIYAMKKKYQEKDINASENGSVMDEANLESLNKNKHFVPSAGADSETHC
The data set is described as follows: OATP1B1 inhibition, conventional RI method (radiolabeled estradiol-17β-D-glucuronide). Here is the method: In the conventional RI method, radiolabeled estradiol-17β-D-glucuronide (EG) was used. […] Subsequently, the cells were washed with an ice-cold KH buffer three times and then solubilized with an aqueous 0.1 N NaOH solution, and after neutralization with an aqueous 1 N HCl solution, the radioactivity taken up by the cells was measured.

In data set [2] the target is T1, OATP1B1. The data set is described as follows: OATP1B1 inhibition, DCF method (fluorescent substrate).
The test system of data set [3] is human hepatocytes. As for the experimental part: (§1) Human hepatocytes were prepared as in Example 6, and a hepatocyte suspension was prepared at 1×10^6 cells/mL.
Data set [4] has as its target T1, OATP1B1.
Procedure: The Km and Vmax were calculated by the following Michaelis-Menten equation. […] Each parameter represents the mean value of four independent experiments.
Data set [5] deals with T1, OATP1B1. Description: Time profiles of the uptake of DCF by OATP1B1. The class given is in vitro ADME. Further details: Expression vectors, pcDNA3.1 vectors (Invitrogen Corporation), carrying the resulting genes were respectively introduced into HEK-293 cells; expressed in transfected cells; host or cells: HEK-293 cells, pcDNA3.1 vector, hygromycin selection. Conditions: 0.1, 1 and 10 μM DCF, 37° C., 1 to 30 min.
Procedure: The cells were sampled at the incubation times of 1 min, 5 min, 10 min, and 30 min, washed with an ice-cold KH buffer three times, and then solubilized with an aqueous 0.1 N NaOH solution, and the fluorescence intensity of the fluorescent dye taken up by the cells was measured as in Example 1 (excitation wavelength: 490 nm, fluorescence wavelength: 515 nm).

In data set [6] the test system is human hepatocytes. Description: Time/temperature-dependent uptake of DCF by human hepatocytes. Format: in vitro ADME. The conditions noted are these: 37° C. versus 4° C., 0.5 to 5 min, cryopreserved human hepatocytes. As for the experimental part:
Cryopreserved human hepatocytes and cryopreserved hepatocytes recovery medium (CHRM) were purchased from Invitrogen Corporation. The cryopreserved human hepatocytes were thawed in a water bath at 37° C. and were added to the CHRM prewarmed at 37° C. After centrifugation at room temperature, the supernatant was discarded, and a hepatocyte suspension at 1×10^6 cells/mL was prepared in ice-cold KH buffer and stored on ice. […] The hepatocytes were incubated at 37° C. and 4° C., respectively, for 0 to 5 minutes. […] Specifically, 80 μL of the hepatocyte suspension was collected and added to a centrifugal tube containing 50 μL of oil (specific gravity: 1.015, Sigma-Aldrich Co.) and 100 μL of an aqueous 2 N NaOH solution under the oil layer, and centrifugation was performed at 10,000 g for 20 seconds. By the centrifugation, the hepatocytes passed through the oil layer and were solubilized with an aqueous 2 N NaOH solution.

For another data set, the target named is T2, OAT3 (Homo sapiens, UniProt Q8TCC7).
T2 sequence (Q8TCC7 1-542): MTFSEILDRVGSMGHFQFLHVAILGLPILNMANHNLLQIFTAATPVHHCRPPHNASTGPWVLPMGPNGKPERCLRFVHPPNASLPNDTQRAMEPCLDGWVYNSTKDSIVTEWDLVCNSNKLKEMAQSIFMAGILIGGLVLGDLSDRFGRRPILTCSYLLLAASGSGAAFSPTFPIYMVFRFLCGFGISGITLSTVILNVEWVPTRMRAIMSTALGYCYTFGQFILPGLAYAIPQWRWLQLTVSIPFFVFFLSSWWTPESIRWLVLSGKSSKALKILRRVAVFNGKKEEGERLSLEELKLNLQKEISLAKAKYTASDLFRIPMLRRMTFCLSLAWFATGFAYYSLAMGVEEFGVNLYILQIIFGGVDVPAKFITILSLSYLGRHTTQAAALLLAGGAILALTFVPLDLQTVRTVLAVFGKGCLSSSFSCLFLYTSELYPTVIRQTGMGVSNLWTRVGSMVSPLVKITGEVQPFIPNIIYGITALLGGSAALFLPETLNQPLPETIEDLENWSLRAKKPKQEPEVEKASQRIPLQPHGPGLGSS
The data set is described as follows: Substrate specificity of fluorescein derivatives on OAT3 (same method). The conditions noted are these: FIG. 1(b), same method as Example 1.

The target of data set [7] is T1, OATP1B1. The data set is described as follows: Substrate specificity of fluorescein derivatives: uptake by HEK-293 cells forcedly expressing OATP1B1. The class given is in vitro ADME. Further details: Expression vectors, pcDNA3.1 vectors (Invitrogen Corporation), carrying the resulting genes were respectively introduced into HEK-293 cells; expressed in transfected cells; host or cells: HEK-293 cells, pcDNA3.1 vector, hygromycin selection. The conditions noted are these: 1 μM dye, 37° C., 5 minutes, compared with OATP1B3 and OATP2B1. As for the experimental part: Complementary DNAs of OATP1B1, OATP1B3, and OATP2B1 (respectively shown by SEQ ID NOs: 2, 3, and 4) were cloned by RT-PCR using human liver total RNA (Invitrogen Corporation) as a template and the following primers: […]
Expression vectors, pcDNA3.1 vectors (Invitrogen Corporation), carrying the resulting genes were respectively introduced into HEK-293 cells by lipofection using Lipofectamin 2000 (Invitrogen Corporation). The cells were cultured in Hygromycin-containing selective media to produce HEK-293 cells forcedly expressing OATP1B1, OATP1B3, and OATP2B1, respectively.

The target of data set [8] is T1, OATP1B1. Description: Effect of known OATP inhibitors on OATP1B1-mediated uptake of DCF. The conditions noted are these: DCF 3 μM, inhibitor 10 and 30 μM.
In data set [9] the test system is human hepatocytes. The data set is described as follows: Effect of OATP inhibitors on DCF uptake by human hepatocytes. Conditions: inhibitor final 10 μM, 37° C.; reduced to the level comparable to the uptake at 4° C. As for the experimental part: as §1
[10] abbreviates: read-out: Ki (EG), substrate radiolabeled EG 0.01 μM, HEK-293 cells forcedly expressing OATP1B1, 37° C., 5 minutes.
[11] abbreviates: read-out: Ki (DCF), substrate DCF 3 μM, HEK-293 cells forcedly expressing OATP1B1, 37° C., 5 minutes.

A value given as a limit tells only on which side of the number the result lay.

Procedure for OAT3: The above cells were seeded in a poly-D-lysine-coated dish at 4×10^5 cells/well. The medium was replaced with a KH buffer, and various fluorescent dyes dissolved in DMSO were added to the respective HEK-293 cells such that the final concentration in the KH buffer was 1 μM, followed by incubation at 37° C. for 5 minutes. Subsequently, the cells were washed with an ice-cold KH buffer three times and were then solubilized with an aqueous 0.1 N NaOH solution, and the fluorescence intensity of the fluorescent dye taken up by the cells was measured (excitation wavelength: 490 nm, fluorescence wavelength: 515 nm).
In order to quantitatively measure the amount of fluorescent compound taken up by the cells, a calibration curve showing the fluorescence intensity per unit fluorescent compound was prepared in advance. Based on this calibration curve, the measured fluorescence intensity was converted into the fluorescent compound per well (pmol/well or μL/well), which was divided by the total protein amount (mg protein/well) of the solubilized cells (standardization) to convert into the fluorescent compound amount per unit protein (pmol/mg protein or μL/mg protein).

Consider `C=CC[C@@H]1/C=C(\C)C[C@H](C)C[C@H](OC)[C@H]2O[C@@](O)(C(=O)C(=O)N3CCCC[C@H]3C(=O)O[C@H](/C(C)=C/[C@@H]3CC[C@@H](O)[C@H](OC)C3)[C@H](C)[C@@H](O)CC1=O)[C@H](C)C[C@@H]2OC` [Tacrolimus], for which the values for the Ki on OATP1B1 [1] and at OATP1B1 [2] were 890 nM and 1.27 µM, respectively.

Take `O=C1OC2(c3cc(Cl)c(O)cc3Oc3cc(O)c(Cl)cc32)c2ccccc21` [DCF, Dichlorofluorescein]: the Km in the data set on human hepatocytes [3] was 38.6 µM; on OATP1B1 [4], 7.22 µM. Besides, the “uptake amount of DCF by HEK-293 cells forcedly expressing OATP1B1” value on OATP1B1 [5] is “increases over time and depends on the concentration of added DCF”. For the same molecule, the “transporter-mediated uptake of DCF by human hepatocytes” value in the data set on human hepatocytes [6] is recorded as “increases over time”. For the same molecule, the “substrate for OAT3” value at OAT3 is “not a satisfactory substrate”. Besides, the “uptake of fluorescent dye among the combinations of fluorescent dye and transporters tested” value on OATP1B1 [7] is “highest uptake”.

Turning to `C[C@]12CC[C@@H]3c4ccc(O)cc4CC[C@H]3[C@@H]1CC[C@@H]2O[C@@H]1O[C@H](C(=O)O)[C@@H](O)[C@H](O)[C@H]1O` [estradiol-17β-D-glucuronide], the “concentration dependence of inhibition of OATP1B1-mediated DCF uptake” value at OATP1B1 [8] is given as “inhibition depends on the concentrations”.

As to `C[C@]12CC[C@@H]3c4ccc(OS(=O)(=O)O)cc4CC[C@H]3[C@@H]1CCC2=O` [ES, estrone-3-sulfate], the values for the Ki on OATP1B1 [1] (setting [10]) and on OATP1B1 [2] (setting [11]) were 78 nM and 0.079 µM, respectively. In addition, the “concentration dependence of inhibition of OATP1B1-mediated DCF uptake” value on OATP1B1 [8] is reported as “inhibition depends on the concentrations”.

As for `C[C@H](CCC(=O)NCCS(=O)(=O)O)[C@H]1CC[C@H]2[C@@H]3[C@H](O)C[C@@H]4C[C@H](O)CC[C@]4(C)[C@H]3C[C@H](O)[C@]12C` [Taurocholic acid], the Ki on OATP1B1 [1] came to 17500 nM; on OATP1B1 [2], 8.68 µM.

`O=C1OC(c2ccc(O)c(S(=O)(=O)O)c2)(c2ccc(O)c(S(=O)(=O)O)c2)c2c(Br)c(Br)c(Br)c(Br)c21` [BSP, bromosulfophthalein]: the Ki at OATP1B1 [1] (setting [10]) turned out to be 73 nM; at OATP1B1 [2] (setting [11]) it was 0.092 µM. For the same molecule, in the data set on human hepatocytes [9], the “DCF uptake by human hepatocytes in presence of inhibitor” value is “reduced”.

Turning to `CN/C(=N/CCSCc1nc[nH]c1C)NC#N` [Cimetidine], the figures for the Ki on OATP1B1 [1] and on OATP1B1 [2] were > 300000 nM and > 300 µM, respectively.

For `CO[C@H]1/C=C/O[C@@]2(C)Oc3c(C)c(O)c4c(O)c(c(/C=N/N5CCN(C)CC5)c(O)c4c3C2=O)NC(=O)/C(C)=C\C=C\[C@H](C)[C@H](O)[C@@H](C)[C@@H](O)[C@@H](C)[C@H](OC(C)=O)[C@@H]1C` [Rifampicin, rifampicin], the inhibition constant (Ki) on OATP1B1 [1] was determined as 290 nM; at OATP1B1 [2], 0.26 µM.

In the case of `CC(=O)N1CCN(c2ccc(OCC3COC(Cn4ccnc4)(c4ccc(Cl)cc4Cl)O3)cc2)CC1` (stereo not drawn) [Ketoconazole], the inhibition constant (Ki) came out at 12200 nM on OATP1B1 [1] and 15.6 µM on OATP1B1 [2].

For `CC[C@H]1OC(=O)[C@H](C)[C@@H](O[C@H]2C[C@@](C)(OC)[C@@H](O)[C@H](C)O2)[C@H](C)[C@@H](O[C@@H]2O[C@H](C)C[C@H](N(C)C)[C@H]2O)[C@](C)(O)C[C@@H](C)C(=O)[C@H](C)[C@@H](O)[C@]1(C)O` [Erythromycin], the Ki was 4140 nM at OATP1B1 [1] and 6.99 µM on OATP1B1 [2].

`CN(Cc1cnc2nc(N)nc(N)c2n1)c1ccc(C(=O)N[C@@H](CCC(=O)O)C(=O)O)cc1` [Methotrexate]: the Ki at OATP1B1 [1] was > 300000 nM; on OATP1B1 [2] it was > 300 µM.
